From ChEMBL document CHEMBL5209568, “Membrane potential based assay for SLC5A11 using HEK-293 SLC5A11 OE cells” (2022) come the findings set out here.

For the assay, the target named is T1, Sodium/myo-inositol cotransporter 2 (Homo sapiens, UniProt Q8WWX8).
T1 sequence (Q8WWX8 whole entry): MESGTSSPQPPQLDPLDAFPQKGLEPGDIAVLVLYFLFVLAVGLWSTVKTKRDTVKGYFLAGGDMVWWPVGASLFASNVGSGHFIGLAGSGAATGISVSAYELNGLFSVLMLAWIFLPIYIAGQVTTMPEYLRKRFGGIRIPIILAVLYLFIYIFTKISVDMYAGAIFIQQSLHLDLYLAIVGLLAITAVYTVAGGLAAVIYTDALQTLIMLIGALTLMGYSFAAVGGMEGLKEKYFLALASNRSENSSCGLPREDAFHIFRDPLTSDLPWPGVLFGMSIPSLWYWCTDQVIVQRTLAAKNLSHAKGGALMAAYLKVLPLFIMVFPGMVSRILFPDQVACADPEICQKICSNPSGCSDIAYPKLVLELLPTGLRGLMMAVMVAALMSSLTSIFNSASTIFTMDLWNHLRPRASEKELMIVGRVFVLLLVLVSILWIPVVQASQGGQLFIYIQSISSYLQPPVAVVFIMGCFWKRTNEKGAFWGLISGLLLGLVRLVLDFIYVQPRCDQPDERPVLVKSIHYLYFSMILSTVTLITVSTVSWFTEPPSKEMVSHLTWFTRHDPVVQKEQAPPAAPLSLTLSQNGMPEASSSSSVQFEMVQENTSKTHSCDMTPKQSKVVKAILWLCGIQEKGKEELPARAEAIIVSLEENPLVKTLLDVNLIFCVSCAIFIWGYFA
Put plainly: Substrate uptake by the Sodium/myo-inositol cotransporter 2 (SMIT2, SLC5A11) as assessed by the fluorescent FLIPR membrane potential dye in HEK-293 JumpIN-SLC5A11 cells (PubChem AID: 1794826). The format is functional, cell-based, HEK293.

For `O[C@H]1[C@@H](O)[C@@H](O)[C@@H](O)[C@@H](O)[C@@H]1O`, the EC50 turned out to be 104 µM.
